From the supplement of paper PMC10307832

Experiments:
Assay in all cases: relative viability (nuclei count vs DMSO), 5 days (fraction); higher = more cells survive
[1] = test system: A-427
In short: (§1)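 Lung cancer cell lines in 1536-well plates got either a single drug or a fixed anchor-drug dose together with five library-drug doses (not always all listed) in √10 steps, by pin tool, on the day after seeding. Nuclei were counted after 5 days, and relative viability is the treated-to-vehicle ratio of nuclei counts. Values are medians of duplicate plates.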

[2] = test system: NCI-H727
In short: as §1

[3] = test system: ABC-1
In short: as §1

[4] = test system: NCI-H2009
In short: as §1

[5] = test system: NCI-H1792
In short: as §1

[6] = test system: NCI-H1993
In short: as §1

[7] = test system: EMC-BAC-2
In short: as §1

[8] = test system: HARA
In short: as §1

[9] = test system: NCI-H322M
In short: as §1

[10] = test system: NCI-H2228
In short: as §1

[11] = test system: SW 1573
In short: as §1

[12] = test system: NCI-H3122
In short: as §1

[13] = test system: HOP-62
In short: as §1

[14] = test system: PC-3 [JPC-3]
In short: as §1

[15] = test system: LXF-289
In short: as §1

[16] = test system: NCI-H596
In short: as §1

[17] = test system: NCI-H1944
In short: as §1

[18] = test system: SK-MES-1
In short: as §1

[19] = test system: NCI-H2170
In short: as §1

[20] = test system: LK-2
In short: as §1

CCN(CC)CCCCNc1ncc2cc(-c3cc(OC)cc(OC)c3)c(NC(=O)NC(C)(C)C)nc2n1 + CC(C)C[C@H](NC(=O)[C@H](Cc1ccccc1)NC(=O)c1cnccn1)B(O)O [Bortezomib] (partner 0.002 µM)
relative viability ([1]; first compound 0.01 µM): 1.1
relative viability ([1]; first compound 0.03162 µM): 0.989
relative viability ([1]; first compound 0.1 µM): 1.12
relative viability ([1]; first compound 0.3162 µM): 1.06
relative viability ([1]; first compound 1 µM): 0.913
relative viability ([2]; first compound 0.01 µM): 1.39
relative viability ([2]; first compound 0.03162 µM): 0.871
relative viability ([2]; first compound 0.1 µM): 0.809
relative viability ([2]; first compound 0.3162 µM): 1.2
relative viability ([2]; first compound 1 µM): 0.783
relative viability ([3]; first compound 0.01 µM): 0.325
relative viability ([3]; first compound 0.03162 µM): 0.343
relative viability ([3]; first compound 0.1 µM): 0.342
relative viability ([3]; first compound 0.3162 µM): 0.247
relative viability ([3]; first compound 1 µM): 0.327
relative viability ([4]; first compound 0.01 µM): 0.958
relative viability ([4]; first compound 0.03162 µM): 1.06
relative viability ([4]; first compound 0.1 µM): 1.1
relative viability ([4]; first compound 0.3162 µM): 1.07
relative viability ([4]; first compound 1 µM): 0.966
relative viability ([5]; first compound 0.01 µM): 1.05
relative viability ([5]; first compound 0.03162 µM): 1.05
relative viability ([5]; first compound 0.1 µM): 0.924
relative viability ([5]; first compound 0.3162 µM): 1.38
relative viability ([5]; first compound 1 µM): 0.689
relative viability ([6]; first compound 0.01 µM): 1
relative viability ([6]; first compound 0.03162 µM): 0.981
relative viability ([6]; first compound 0.1 µM): 1.26
relative viability ([6]; first compound 0.3162 µM): 1.41
relative viability ([6]; first compound 1 µM): 1.11
relative viability ([7]; first compound 0.01 µM): 1.11
relative viability ([7]; first compound 0.03162 µM): 1.07
relative viability ([7]; first compound 0.1 µM): 1.11
relative viability ([7]; first compound 0.3162 µM): 1.19
relative viability ([7]; first compound 1 µM): 1.04
relative viability ([8]; first compound 0.01 µM): 1.19
relative viability ([8]; first compound 0.03162 µM): 1.12
relative viability ([8]; first compound 0.1 µM): 1.26
relative viability ([8]; first compound 0.3162 µM): 1.04
relative viability ([8]; first compound 1 µM): 0.882
relative viability ([9]; first compound 0.01 µM): 1.29
relative viability ([9]; first compound 0.03162 µM): 1.36
relative viability ([9]; first compound 0.1 µM): 1.35
relative viability ([9]; first compound 0.3162 µM): 1.39
relative viability ([9]; first compound 1 µM): 1.08
relative viability ([10]; first compound 0.01 µM): 0.874
relative viability ([10]; first compound 0.03162 µM): 0.997
relative viability ([10]; first compound 0.1 µM): 1.24
relative viability ([10]; first compound 0.3162 µM): 1.11
relative viability ([10]; first compound 1 µM): 1.02
relative viability ([11]; first compound 0.01 µM): 1.03
relative viability ([11]; first compound 0.03162 µM): 0.991
relative viability ([11]; first compound 0.1 µM): 1.07
relative viability ([11]; first compound 0.3162 µM): 1.03
relative viability ([11]; first compound 1 µM): 0.936
relative viability ([12]; first compound 0.01 µM): 1.02
relative viability ([12]; first compound 0.03162 µM): 1.07
relative viability ([12]; first compound 0.1 µM): 1.1
relative viability ([12]; first compound 0.3162 µM): 1.06
relative viability ([12]; first compound 1 µM): 1.01
relative viability ([13]; first compound 0.01 µM): 0.726
relative viability ([13]; first compound 0.03162 µM): 0.888
relative viability ([13]; first compound 0.1 µM): 0.728
relative viability ([13]; first compound 0.3162 µM): 0.717
relative viability ([13]; first compound 1 µM): 0.79
relative viability ([14]; first compound 0.01 µM): 0.895
relative viability ([14]; first compound 0.03162 µM): 0.862
relative viability ([14]; first compound 0.1 µM): 0.972
relative viability ([14]; first compound 0.3162 µM): 0.966
relative viability ([14]; first compound 1 µM): 0.939
relative viability ([15]; first compound 0.01 µM): 0.99
relative viability ([15]; first compound 0.03162 µM): 1.08
relative viability ([15]; first compound 0.1 µM): 1.16
relative viability ([15]; first compound 0.3162 µM): 0.955
relative viability ([15]; first compound 1 µM): 0.846
relative viability ([16]; first compound 0.01 µM): 0.976
relative viability ([16]; first compound 0.03162 µM): 1.06
relative viability ([16]; first compound 0.1 µM): 1.03
relative viability ([16]; first compound 0.3162 µM): 1.16
relative viability ([16]; first compound 1 µM): 0.923

COc1nc(C)cnc1NS(=O)(=O)c1cccnc1-c1ccc(-c2nnco2)cc1 [Zibotentan] + CC1(C)CCC(c2ccc(Cl)cc2)=C(CN2CCN(c3ccc(C(=O)NS(=O)(=O)c4ccc(N[C@H](CCN5CCOCC5)CSc5ccccc5)c(S(=O)(=O)C(F)(F)F)c4)cc3)CC2)C1 [Navitoclax] (partner 0.5 µM)
relative viability ([1]; first compound 0.08 µM): 0.943
relative viability ([1]; first compound 0.253 µM): 0.978
relative viability ([1]; first compound 0.8 µM): 0.978
relative viability ([1]; first compound 2.53 µM): 0.995
relative viability ([17]; first compound 0.08 µM): 1.06
relative viability ([17]; first compound 0.253 µM): 1.07
relative viability ([17]; first compound 0.8 µM): 0.977
relative viability ([17]; first compound 2.53 µM): 1.03
relative viability ([2]; first compound 0.08 µM): 0.48
relative viability ([2]; first compound 0.253 µM): 0.396
relative viability ([2]; first compound 0.8 µM): 0.48
relative viability ([2]; first compound 2.53 µM): 0.435
relative viability ([4]; first compound 0.08 µM): 1.17
relative viability ([4]; first compound 0.253 µM): 1.08
relative viability ([4]; first compound 0.8 µM): 1.2
relative viability ([4]; first compound 2.53 µM): 1.25
relative viability ([5]; first compound 0.08 µM): 0.597
relative viability ([5]; first compound 0.253 µM): 0.605
relative viability ([5]; first compound 0.8 µM): 0.588
relative viability ([5]; first compound 2.53 µM): 0.604
relative viability ([6]; first compound 0.253 µM): 0.955
relative viability ([6]; first compound 0.8 µM): 0.813
relative viability ([6]; first compound 2.53 µM): 0.956
relative viability ([18]; first compound 0.08 µM): 1.32
relative viability ([18]; first compound 0.253 µM): 1.14
relative viability ([18]; first compound 0.8 µM): 1.21
relative viability ([18]; first compound 2.53 µM): 1.29
relative viability ([19]; first compound 0.08 µM): 0.699
relative viability ([19]; first compound 0.253 µM): 0.6
relative viability ([19]; first compound 0.8 µM): 0.651
relative viability ([19]; first compound 2.53 µM): 0.651
relative viability ([7]; first compound 0.08 µM): 1.11
relative viability ([7]; first compound 0.253 µM): 1.17
relative viability ([7]; first compound 0.8 µM): 1.18
relative viability ([7]; first compound 2.53 µM): 1.19
relative viability ([20]; first compound 0.08 µM): 1.1
relative viability ([20]; first compound 0.253 µM): 0.807
relative viability ([20]; first compound 0.8 µM): 0.806
relative viability ([20]; first compound 2.53 µM): 0.828
relative viability ([8]; first compound 0.08 µM): 1.2
relative viability ([8]; first compound 0.253 µM): 1.12
relative viability ([8]; first compound 0.8 µM): 1.11
relative viability ([8]; first compound 2.53 µM): 1.11
relative viability ([9]; first compound 0.08 µM): 1.12
relative viability ([9]; first compound 0.253 µM): 1.18
relative viability ([9]; first compound 0.8 µM): 1.23
relative viability ([9]; first compound 2.53 µM): 1.3
relative viability ([10]; first compound 0.08 µM): 0.942
relative viability ([10]; first compound 0.253 µM): 0.85
relative viability ([10]; first compound 0.8 µM): 0.685
relative viability ([10]; first compound 2.53 µM): 1.44
relative viability ([11]; first compound 0.08 µM): 0.993
relative viability ([11]; first compound 0.253 µM): 0.914
relative viability ([11]; first compound 0.8 µM): 1.01
relative viability ([11]; first compound 2.53 µM): 1.04
relative viability ([12]; first compound 0.08 µM): 1.04
relative viability ([12]; first compound 0.253 µM): 1.01
relative viability ([12]; first compound 0.8 µM): 1.04
relative viability ([12]; first compound 2.53 µM): 1.06
relative viability ([13]; first compound 0.08 µM): 1.06
relative viability ([13]; first compound 0.253 µM): 1.08
relative viability ([13]; first compound 0.8 µM): 0.99
relative viability ([13]; first compound 2.53 µM): 1
relative viability ([14]; first compound 0.08 µM): 0.771
relative viability ([14]; first compound 0.253 µM): 0.726
relative viability ([14]; first compound 0.8 µM): 0.795
relative viability ([14]; first compound 2.53 µM): 0.728
relative viability ([15]; first compound 0.08 µM): 0.96
relative viability ([15]; first compound 0.253 µM): 0.945
relative viability ([15]; first compound 0.8 µM): 0.938
relative viability ([15]; first compound 2.53 µM): 0.968
relative viability ([16]; first compound 0.08 µM): 1.19
relative viability ([16]; first compound 0.253 µM): 0.896
relative viability ([16]; first compound 0.8 µM): 0.958
relative viability ([16]; first compound 2.53 µM): 1.05
